What was measured:
[1] = tested on: Bacillus subtilis strain M45; assay: Mutagenicity, Rec-Assay, recombination repair deficient strain; conditions: 10 microgram/disk
Method: (§1) Then, a solution or suspension of each of the present compounds was absorbed on a round sheet of paper (disk) of 8 mm in diameter in an amount of 0.04 ml and the disk was placed on the culture plate so as to cover the starting points of the streaks of the micro-organism's culture.

[2] = tested on: Bacillus subtilis strain H17; assay: Mutagenicity, Rec-Assay, recombination repair retaining strain; conditions: 10 microgram/disk
Method: as §1

[3] = tested on: exudation; assay: Anti-exudation activity (air pouch, croton oil); format: in vivo, rat; conditions: 5 days; for I.R. against exudation: oral, 1000 mg/kg/day; for inhibition in vivo at 1000 mg/kg/day: Rattus norvegicus, po, 144 h, read-out: I.R. against exudation
Procedure, shortened: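 Rats, 6 per group, given subcutaneous dorsal air pouch injected with 0.5 ml sesame oil containing 1% croton oil. Compounds dosed orally in distilled water at 1000 mg/kg/day for five days; pouch exudate volume measured on day 6 and expressed as percent inhibition of exudation.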

[4] = tested on: carrageenin edema; assay: Anti-Carrageenin edema activity; format: in vivo, rat; conditions: 1000 mg/kg once; for I.R. against carrageenin edema: oral, 1000 mg/kg; for inhibition in vivo at 1000 mg/kg: Rattus norvegicus, po, read-out: I.R. against carrageenin edema
Procedure, shortened: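 Rats (10 per group) given compound orally once at 1000 mg/kg in distilled water, then 0.1 ml 1% carrageenin injected into right hind foot pad. Foot pad thickness measured at intervals; inhibition rate (%) = (1−T/C)×100 versus carrageenin-only animals.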

[5] = tested on: cotton pellet granuloma; assay: Anti-granuloma activity (cotton pellet); format: in vivo, rat; conditions: 7 days; for I.R. against cotton pellet edema: oral, 1000 mg/kg/day; for inhibition in vivo at 1000 mg/kg/day: Rattus norvegicus, po, 192 h, read-out: I.R. against cotton pellet edema
Procedure, shortened: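 Rats (6/group) implanted dorsally with two 30±1 mg cotton pellets; compounds given orally in distilled water at 1000 mg/kg/day once daily for 7 days. Granuloma excised on day 8 and dry weight measured; value is % inhibition of granuloma proliferation.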

[6] = tested on: level of blood sugar; assay: Anti-hyperglycemia activity (reduction of blood sugar level); format: in vivo, rat (Wistar, streptozotocin); conditions: oral, 300 mg/kg
Procedure, shortened: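 Streptozotocin-diabetic Wistar rats (60 mg/kg i.p., relapsed hyperglycemia after insulin) given compounds orally at 300 mg/kg in distilled water. Blood sugar measured in samples taken 3 and 6 h post-dose.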

[7] = tested on: Sarcoma-180; assay: Anti-tumour activity against Sarcoma-180; format: in vivo, mouse (ICR-JCL); conditions: 10 times every other day, tumour weight on 25th day; for Antitumour activity, inhibiting rate (I.R.): oral, 500 mg/kg/time, 500 mg/kg; for inhibition in vivo at 500 mg/kg: Mus musculus, Sarcoma-180, po, 600 h, read-out: Antitumour activity, inhibiting rate (I.R.)
Procedure, shortened: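 ICR-JCL mice were given 1×10^6 Sarcoma-180 cells axillary; from 24 hours, compounds in saline were dosed orally at 500 mg/kg/time, 10 times every other day. Tumour nodes were weighed on day 25; inhibition rate = (1-T/C)×100(%) versus untreated tumour-bearing mice.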

[8] = tested on: blood pressure; assay: Anti-hypertension activity (reduction of blood pressure); format: in vivo, rat (spontaneous hypertension); conditions: oral, 300 mg/kg
Procedure, shortened: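 Spontaneously hypertensive rats dosed orally at 300 mg/kg in distilled water. Blood pressure measured at 3 and 6 h. Activity taken as change from the value just before dosing.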

[9] = tested on: ICR-JCL mice; assay: in vivo; conditions: 7 days observation, 10080 min
[10] = tested on: acetic acid writhing; assay: Analgetic activity against chemical stimulation of acetic acid (writhing); format: in vivo, mouse (ICR female); conditions: 30 min before 0.6% acetic acid; for I.R. of writhing: oral, 1000 mg/kg; for inhibition in vivo at 1000 mg/kg: Mus musculus, po, read-out: I.R. of writhing
Source text: Rate of inhibition (I.R.) (%)=(1-T/C)×100
T represents the average number of writhing of the group of mice administered with the present compound and injected with acetic acid, and C represents the average number of writhing of the group of mice only injected with acetic acid (control).

[11] = tested on: pseudo-escaping reaction to tail pressure; assay: Analgetic activity against mechanical stimulation of pressure; format: in vivo, mouse (ICR female); conditions: oral, 1000 mg/kg
[12] = tested on: beta-lipoprotein; assay: Anti-hyperlipemia activity, beta-lipoprotein in blood; format: in vivo, rabbit (Japanese white male); conditions: oral, 300 mg/kg once
Procedure, shortened: (§2)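 Male Japanese white rabbits fed 1% cholesterol diet for 3 months received compound once orally at 300 mg/kg in water. Ear-vein blood: cholesterol by enzymatic method, beta-lipoprotein by colorimetry; values are change from predose at 3 or 6 h.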

[13] = tested on: total cholesterol; assay: Anti-hyperlipemia activity, total cholesterol in blood; format: in vivo, rabbit (Japanese white male); conditions: oral, 300 mg/kg once; for Reduction of cholesterol level after 3 hrs.: negative = raising
Procedure, shortened: as §2

[14] = in vivo; conditions: mouse, in vivo, po, mice, 7 days observation, read-out: LD50, acute oral toxicity
[15] = tested on: pyrexia (Saccharomyces cerevisiae); assay: Anti-pyrexia activity (yeast-induced); format: in vivo; conditions: Rattus norvegicus, oral, read-out: Rate of inhibiting pyrexia (I.R.)
Procedure, shortened: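 Rats (n=6/group) received subcutaneous 20% Saccharomyces cerevisiae suspension, fasted 10 h, then dosed orally with 1000 mg/kg compound in distilled water. Rectal temperature was tracked at set intervals and the lowest value taken; inhibition rate computed against non-yeast and yeast-only control temperatures.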

[16] = tested on: foot pad reaction to sheep erythrocyte; assay: Delayed-type intracutaneous reaction (foot pad reaction, cellular immunity); format: in vivo, mouse (ICR-JCL); conditions: same dose (250 mg/kg/day) intraperitoneally
Method: In order to know the influence of the present compounds on the cellular immunity, a foot pad reaction test was carried out by using ICR-JCL mice as experimental animals and sheep erythrocyte as an antigen as follows:
Sheep erythrocytes were suspended in a physiological saline solution at a concentration of 10% by volume and 0.2 ml of the suspension was injected into the caudal vein of each mouse for the primary sensitization, and after 7 days, a 40% by volume suspension of the erythrocytes in physiological saline solution was injected into the foot pad of the mouse for the challenge. The thickness of the injected foot pad was measured on the next day. One of the present compounds was administered intraperitoneally at dose of 250 mg/kg/day once a day for continued 5 days around the day of the first sensitization as a center.

SMILES	Reduced level of blood sugar after 3 hrs. [6] [mg/dL]	Reduced level of blood sugar after 6 hrs. [6] [mg/dL]	Reduced level of blood pressure after 3 hrs. [8] [mm Hg]	Reduced level of blood pressure after 6 hrs. [8] [mm Hg]	Pseudo-escapting reaction pressure [11] [mmHg]	Pseudo-escapting reaction time [11] [s]	inhibition in vivo at 1000 mg/kg/day [3] [%]	inhibition in vivo at 1000 mg/kg [4] [%]	inhibition in vivo at 1000 mg/kg/day [5] [%]	inhibition in vivo at 500 mg/kg [7] [%]	LD50 at 168 h [14] [mg/kg]	inhibition in vivo at 1000 mg/kg [15] [%]	inhibition in vivo at 1000 mg/kg [10] [%]	Reduction of beta-lipoprotein level after 3 hrs. [12] [mg/dL]	Reduction of beta-lipoprotein level after 6 hrs. [12] [mg/dL]	Reduction of cholesterol level after 3 hrs. [13] [mg/dL]	Reduction of cholesterol level after 6 hrs. [13] [mg/dL]	also measured
NC[C@H]1O[C@H](O[C@H]2[C@H](O)[C@@H](O[C@H]3O[C@H](CO)[C@@H](O)[C@H](N)[C@H]3O)[C@H](N)C[C@@H]2N)[C@H](O)[C@@H](O)[C@@H]1O [Kanamycin]																		Length of growth inhibition M45 [1]: 6 mm; Difference of growth inhibition (M45, H17) ([1]; M45 minus H17): 3 mm; Length of growth inhibition H17 [2]: 3 mm
C[C@@H]1OC(Nc2ccc(CC(=O)O)cc2)[C@H](O)[C@H](O)[C@H]1O (stereo partly drawn) [Compound 28, sodium p-aminophenylacetate-N-L-rhamnoside]	92	77	25	19	87	38												I.R. against exudation [3]: 6.1%; I.R. against carrageenin edema [4]: 8.3%; I.R. against cotton pellet edema [5]: 20.6%; Antitumour activity, inhibiting rate (I.R.) [7]: 45%; LD50, acute oral toxicity [9]: 11100 mg/kg; I.R. of writhing [10]: 25%; Reduction of beta-lipoprotein level after 3 hrs. ([12]; 300 mg/kg): 101 mg/dL; Reduction of beta-lipoprotein level after 6 hrs. ([12]; 300 mg/kg): 100 mg/dL; Reduction of cholesterol level after 3 hrs. ([13]; 300 mg/kg): 5 mg/dL; Reduction of cholesterol level after 6 hrs. ([13]; 300 mg/kg): 25 mg/dL
C[C@@H]1OC(Nc2ccc(CC(=O)O)cc2)[C@H](O)[C@H](O)[C@H]1O (stereo partly drawn) [Compound 29, potassium p-aminophenylacetate-N-L-rhamnoside]	88	71	21	17	84	41												I.R. against exudation [3]: 5.8%; I.R. against carrageenin edema [4]: 9.3%; I.R. against cotton pellet edema [5]: 15.9%; Antitumour activity, inhibiting rate (I.R.) [7]: 38%; LD50, acute oral toxicity [9]: 10000 mg/kg; I.R. of writhing [10]: 26%; Reduction of beta-lipoprotein level after 3 hrs. ([12]; 300 mg/kg): 95 mg/dL; Reduction of beta-lipoprotein level after 6 hrs. ([12]; 300 mg/kg): 121 mg/dL; Reduction of cholesterol level after 3 hrs. ([13]; 300 mg/kg): 3 mg/dL; Reduction of cholesterol level after 6 hrs. ([13]; 300 mg/kg): 40 mg/dL
O=C(OCc1ccccc1)c1ccc(NC2C[C@H](O)[C@H](O)CO2)cc1 (stereo partly drawn) [Compound 13, benzyl p-aminobenzoate-N-D-deoxyriboside]	108	113	20	21	82	40	23.5	7	4.2	38	9200	39	24	135	144	4	35	
O=C(OC1CCCCC1)c1cccc(NC2O[C@H](CO)[C@@H](O)[C@H](O)[C@@H]2O)c1 (stereo partly drawn) [Compound 17, cyclohexyl m-aminobenzoate-N-D-mannoside]	140	145	23	28	92	42	14.6	4.3	19.7	49	> 15000	30	47	124	136	-2	40	
CO[C@@]12[C@H](COC(N)=O)C3=C(C(=O)C(C)=C(N)C3=O)N1C[C@@H]1N[C@@H]12 [Mitomycin C, mitomycin C]																		mortality in foot pad reaction test [16]: died
O=C(OC1CCCCC1)c1ccc(NC2OC[C@@H](O)[C@H](O)[C@H]2O)cc1 (stereo partly drawn) [Compound 18, cyclohexyl p-aminobenzoate-N-D-xyloside]	121	165	22	25	94	39	25	19.7	12.2	62	> 15000	62	33	148	154	2	62	
O=C(OC1CCCCC1)c1ccc(NC2O[C@H](CO)[C@@H](O[C@H]3O[C@H](CO)[C@@H](O[C@H]4O[C@H](CO)[C@@H](O)[C@H](O)[C@H]4O)[C@H](O)[C@H]3O)[C@H](O)[C@H]2O)cc1 (some centres unmarked) [Compound 20, cyclohexyl p-aminobenzoate-N-maltotrioside]	113	120	22	24	75	35	6.2	8.6	21.7	37	12500	23	17	125	128	-2	50	

Reference: patent US4372948A, “Derivative of saccharide and physiologically active agent containing the same” (Kureha Kagaku Kogyo Kabushiki Kaisha, priority 1980, dated 1983)
